Results taken from patent US9844546B2, “Antibody against human HIF hydroxylase” (OXFORD UNIVERSITY INNOVATION LIMITED, priority 2001, dated 2017).
“Also recorded” adds a separate entry of the source.

Tested on: pVHL
Assay: pVHL capture assay using biotinylated synthetic polypeptides
Format: binding, human
Conditions: wild type or mutant (Pro86His) pVHL; with or without cell extract
Experimental: We synthesized a polypeptide (HIF-1α residues 556-574), containing a trans-4-hydroxy-S-proline residue at position 564 (19:Pro564Hyp), since the trans-4-hydroxylation is the commonest enzymatic proline oxidation (25). A polypeptide blocking assay was carried out using the 19:Pro564Hyp modified polypeptide and, as a control, the unmodified polypeptide without the trans-4-hydroxylation (19:WT). The 19:WT polypeptide was either incubated with cell extract before the binding assay or was untreated. The 19:Pro564Hyp polypeptide was added to a mixture of HIF-1α and pVHL-HA IVTTs at a concentration of 1, 0.25, 0.05 or 0.01 μM and the cell extract treated or untreated 19:WT polypeptide at a concentration of 0.5 μM. Interaction of HIF-1α with pVHL was then assayed by anti-HA immunoprecipitation. […] A pVHL capture assay was then carried out using biotinylated synthetic polypeptides. The same polypeptides, 19:Pro564Hyp and 19:WT were assessed for the ability to capture wild type or mutant (Pro86His) pVHL. […] In both cases capture was specific for wild type, as opposed to mutant, pVHL.
• 1. G. L. Semenza, Genes Dev 14, 1983-91. (2000). • 2. N. V. Iyer, et al., Genes Dev. 12, 149-162 (1997). • 3. E. Maltepe, J. V. Schmidt, D. Baunoch, C. A. Bradfield, M. C. Simon, Nature 386, 403-407 (1997). • 4. G. L. Wang, B.-H. Jiang, E. A. Rue, G. L. Semenza, Proc. Natl. Acad. Sci. USA 92, 5510-5514 (1995). • 5. […]

Substance: 19:Pro564Hyp: polypeptide (HIF-1α residues 556-574) containing a trans-4-hydroxy-S-proline residue at position 564
- capture of pVHL by biotinylated polypeptide: captured wild type pVHL without pre-treatment; also recorded: specifically captured wild type but not mutant pVHL

Substance: 19:WT: polypeptide comprising HIF-1α residues 556 to 574
- capture of pVHL by biotinylated polypeptide: captured pVHL only after incubation with cell extract; also recorded: could not interact without prior incubation with cell extract
